# Data reported in ChEMBL document CHEMBL4477260, “Arylazolyl(azinyl)thioacetanilides. Part 20: Discovery of novel purinylthioacetanilides derivatives as potent HIV-1 NNRTIs via a structure-based bioisosterism approach” (Bioorg Med Chem, 2016).
# Assays:
# [1] = Selectivity index, ratio of CC50 for mock-infected human MT4 cells to EC50 for human HIV-1 3B infected in human MT4 cells; format: toxicity, cell-based; settings: MT4 cells (mock-infected for CC50, HIV-1-infected for EC50)
# [2] = Selectivity index, ratio of CC50 for mock-infected human MT4 cells to EC50 for human HIV-1 3B harboring RES056 mutant infected in human MT4 cells; format: toxicity, cell-based; settings: MT4 cells (mock-infected for CC50, HIV-1-infected for EC50)
# [3] = system: Human immunodeficiency virus 1; assay: Antiviral activity against human HIV-1 3B harboring RES056 mutant infected in human MT4 cells assessed as protection from virus-induced cytopathic effect measured 5 days post infection by MTT assay; format: functional, organism-based; settings: Human immunodeficiency virus 1, 3B, MT4, 120 h
# [4] = Cytotoxicity against mock-infected human MT4 cells assessed as reduction of cell viability after 5 days by MTT assay; format: cell-based
# [5] = system: Human immunodeficiency virus 1; assay: Antiviral activity against human HIV-1 3B infected in human MT4 cells assessed as protection from virus-induced cytopathic effect measured 5 days post infection by MTT assay; format: functional, organism-based; settings: Human immunodeficiency virus 1, 3B, MT4, 120 h
# [6] = system: Human immunodeficiency virus 1; assay: Antiviral activity against human HIV-1 3B harboring reverse transcriptase Y181C mutant infected in human MT4 cells assessed as protection from virus-induced cytopathic effect measured 5 days post infection by MTT assay; format: functional, organism-based; settings: Human immunodeficiency virus 1, 3B, MT4, 120 h
# [7] = Selectivity index, ratio of CC50 for mock-infected human MT4 cells to EC50 for human HIV-1 3B harboring L100I mutant infected in human MT4 cells; format: toxicity, cell-based; settings: MT4 cells (mock-infected for CC50, HIV-1-infected for EC50)
# [8] = system: Human immunodeficiency virus 1; assay: Antiviral activity against human HIV-1 3B harboring reverse transcriptase K103N mutant infected in human MT4 cells assessed as protection from virus-induced cytopathic effect measured 5 days post infection by MTT assay; format: functional, organism-based; settings: Human immunodeficiency virus 1, 3B, MT4, 120 h
# [9] = system: Human immunodeficiency virus 1; assay: Antiviral activity against human HIV-1 3B harboring reverse transcriptase Y188L mutant infected in human MT4 cells assessed as protection from virus-induced cytopathic effect measured 5 days post infection by MTT assay; format: functional, organism-based; settings: Human immunodeficiency virus 1, 3B, MT4, 120 h
# [10] = system: Human immunodeficiency virus 1; assay: Antiviral activity against human HIV-1 3B harboring reverse transcriptase L100I mutant infected in human MT4 cells assessed as protection from virus-induced cytopathic effect measured 5 days post infection by MTT assay; format: functional, organism-based; settings: Human immunodeficiency virus 1, 3B, MT4, 120 h
# [11] = system: Human immunodeficiency virus 1; assay: Antiviral activity against human HIV-1 3B harboring reverse transcriptase F227L/V106A double mutant infected in human MT4 cells assessed as protection from virus-induced cytopathic effect measured 5 days post infection by MTT assay; format: functional, organism-based; settings: Human immunodeficiency virus 1, 3B, MT4, 120 h
# [12] = Selectivity index, ratio of CC50 for mock-infected human MT4 cells to EC50 for human HIV-1 3B harboring E138K mutant infected in human MT4 cells; format: toxicity, cell-based; settings: MT4 cells (mock-infected for CC50, HIV-1-infected for EC50)
# [13] = Selectivity index, ratio of CC50 for mock-infected human MT4 cells to EC50 for human HIV-1 3B harboring F227L/V106A double mutant infected in human MT4 cells; format: toxicity, cell-based; settings: MT4 cells (mock-infected for CC50, HIV-1-infected for EC50)
# [14] = Selectivity index, ratio of CC50 for mock-infected human MT4 cells to EC50 for human HIV-1 3B harboring K103N mutant infected in human MT4 cells; format: toxicity, cell-based; settings: MT4 cells (mock-infected for CC50, HIV-1-infected for EC50)
# [15] = Selectivity index, ratio of CC50 for mock-infected human MT4 cells to EC50 for human HIV-1 3B harboring Y188L mutant infected in human MT4 cells; format: toxicity, cell-based; settings: MT4 cells (mock-infected for CC50, HIV-1-infected for EC50)
# [16] = Selectivity index, ratio of CC50 for mock-infected human MT4 cells to EC50 for human HIV-1 3B harboring Y181C mutant infected in human MT4 cells; format: toxicity, cell-based; settings: MT4 cells (mock-infected for CC50, HIV-1-infected for EC50)
# [17] = system: Human immunodeficiency virus 1; assay: Antiviral activity against human HIV-1 3B harboring reverse transcriptase E138K mutant infected in human MT4 cells assessed as protection from virus-induced cytopathic effect measured 5 days post infection by MTT assay; format: functional, organism-based; settings: Human immunodeficiency virus 1, 3B, MT4, 120 h
# [18] = target: Human immunodeficiency virus type 1 reverse transcriptase (Human immunodeficiency virus 1, UniProt Q72547); assay: Inhibition of HIV-1 reverse transcriptase assessed as reduction in biotin-duTP incorporation using biotin-labeled dUTP and hybrid poly(A)-oligo (dT)15 template primer after 2 hrs by ELISA
Compound,selectivity ratio [1],selectivity ratio [2],EC50 [3] [µM],CC50 at 120 h [4] [µM],EC50 [5] [µM],other results
NS(=O)(=O)c1ccc(NC(=O)CSc2nc3cnc(Cl)nc3n2-c2ccc(C3CC3)c3ccccc23)cc1,6,< 1,> 113,113,18.7,–
NC(=O)c1ccc(NC(=O)CSc2nc3cnc(Cl)nc3n2-c2cccc3ccccc23)c(Cl)c1,5,< 1,> 22.7,22.7,4.56,–
NC(=O)c1ccc(NC(=O)CSc2nc3cnc(Cl)nc3n2-c2ccc(C3CC3)c3ccccc23)c(Cl)c1,< 1,–,–,6.39,> 6.39,–
Cc1cc(C#N)cc(C)c1Oc1nc(Nc2ccc(C#N)cc2)nc(N)c1Br [ETRAVIRINE],–,–,–,2.46,0.00335,EC50 [6]: 0.015 µM
CC(Sc1nc2cnc(Cl)nc2n1-c1cccc2ccccc12)C(=O)Nc1ccc(S(N)(=O)=O)cc1Cl (stereo not drawn),20,< 1,> 21.5,21.5,1.07,–
O=C1Nc2ccc(Cl)cc2[C@@](C#CC2CC2)(C(F)(F)F)O1 [EFAVIRENZ],–,–,–,≥ 6.34,–,–
CC(Sc1nc2cnc(Cl)nc2n1-c1cccc2ccccc12)C(=O)Nc1ccc(C(N)=O)cc1Cl (stereo not drawn),9,< 1,> 23.6,23.6,2.73,–
NC(=O)c1ccc(NC(=O)CSc2nc3cnc(Cl)nc3n2-c2cccc3ccccc23)cc1,≤ 5,< 1,> 156,156,≥ 28.8,–
NC(=O)c1ccc(NC(=O)CSc2nc3cnc(Cl)nc3n2-c2cccc3ccccc23)c(Br)c1,12,< 1,> 21.6,21.6,1.8,–
CC(Sc1nc2cnc(Cl)nc2n1-c1ccc(C2CC2)c2ccccc12)C(=O)Nc1ccc(S(N)(=O)=O)cc1Cl (stereo not drawn),4,≤ 3,≥ 5.74,17.6,4.04,–
CCOC(=O)c1ccc(NC(=O)CSc2nc3cnc(Cl)nc3n2-c2ccc(C3CC3)c3ccccc23)c(Br)c1,< 1,–,–,150,> 150,–
O=C(CSc1nc2cnc(Cl)nc2n1-c1cccc2ccccc12)Nc1ccc(C(F)(F)F)cc1,< 1,–,–,14.2,> 14.3,–
CC(Sc1nc2cnc(Cl)nc2n1-c1ccc(C2CC2)c2ccccc12)C(=O)Nc1ccc(C(N)=O)cc1Cl (stereo not drawn),< 1,–,–,25.1,> 25.1,–
CC(Sc1nc2cnc(Cl)nc2n1-c1ccc(C2CC2)c2ccccc12)C(=O)Nc1ccc(C(N)=O)cc1Br (stereo not drawn),8,10,22.2,55.9,7.22,selectivity ratio [7]: 8; EC50 [8]: ≥ 48.1 µM; EC50 [9]: > 55.8 µM; EC50 [10]: 5.64 µM; EC50 [11]: > 55.8 µM; selectivity ratio [12]: ≤ 1; EC50 [6]: > 55.8 µM; selectivity ratio [13]: < 1; selectivity ratio [14]: ≤ 1; selectivity ratio [15]: < 1; selectivity ratio [16]: < 1; EC50 [17]: ≥ 65.1 µM
NS(=O)(=O)c1ccc(NC(=O)CSc2nc3cnc(Cl)nc3n2-c2cccc3ccccc23)cc1,23,< 1,> 104,104,4.46,–
CC(Sc1nc2cnc(Cl)nc2n1-c1ccc(C2CC2)c2ccccc12)C(=O)Nc1ccc(S(N)(=O)=O)cc1Br (stereo not drawn),6,1,> 15.9,15.9,2.75,–
CC(Sc1nc2cnc(Cl)nc2n1-c1cccc2ccccc12)C(=O)Nc1ccc(C(N)=O)cc1Br (stereo not drawn),12,< 1,> 21.8,21.8,1.86,–
CC(C)Nc1cccnc1N1CCN(C(=O)c2cc3cc(NS(C)(=O)=O)ccc3[nH]2)CC1 [DELAVIRDINE],–,–,–,36.8,0.0383,selectivity ratio [7]: 14; selectivity ratio [12]: 715; selectivity ratio [13]: 16; selectivity ratio [14]: 12; selectivity ratio [15]: 44; selectivity ratio [16]: 15
NC(=O)c1ccc(NC(=O)CSc2nc3cnc(Cl)nc3n2-c2ccc(C3CC3)c3ccccc23)c(Br)c1,< 1,–,–,11.2,> 11.2,–
COC(=O)c1ccc(NC(=O)CSc2nc3cnc(Cl)nc3n2-c2cccc3ccccc23)c(Br)c1,94,< 1,> 156,156,1.66,–
Cc1ccnc2c1NC(=O)c1cccnc1N2C1CC1 [NEVIRAPINE],–,–,–,≥ 15,–,–
CC(Sc1nc2cnc(Cl)nc2n1-c1cccc2ccccc12)C(=O)Nc1ccc(S(N)(=O)=O)cc1Br (stereo not drawn),24,< 1,> 19,19,0.78,IC50 [18]: 6.42 µM
COC(=O)c1ccc(NC(=O)CSc2nc3cnc(Cl)nc3n2-c2ccc(C3CC3)c3ccccc23)c(Br)c1,< 1,–,–,153,> 153,–
O=C(CSc1nc2cnc(Cl)nc2n1-c1ccc(C2CC2)c2ccccc12)Nc1ccc(C(F)(F)F)cc1,< 1,< 1,–,16.2,> 16.2,–
CCOC(=O)c1ccc(NC(=O)CSc2nc3cnc(Cl)nc3n2-c2cccc3ccccc23)c(Br)c1,32,< 1,> 109,109,3.43,–
